The target in assay [1] is T1, CYP154C5 (Nocardia farcinica, UniProt Q5YNS8).
T1 construct: gene NFA_53110; full-length, N-terminal His-tag (pET28a(+), NdeI/HindIII), purified from E. coli C43(DE3)
The assay can be described thus: biochemical. It counts as binding.

In assay [2] the target is T2, CYP154C5 (Nocardia farcinica, UniProt Q5YNS8, Q239A).
T2 construct: gene NFA_53110; full-length, N-terminal His-tag (pET28a(+), NdeI/HindIII), purified from E. coli C43(DE3)
Kind of assay: type I spectral shift titration, tight-binding fit. From the text: (§1) type I spectral shift titration, tight-binding fit on CYP154C5

The target of assay [3] is T3, CYP154C5 (Nocardia farcinica, UniProt Q5YNS8, F92A).
T3 construct: gene NFA_53110; full-length, N-terminal His-tag (pET28a(+), NdeI/HindIII), purified from E. coli C43(DE3)
T3 sequence (Q5YNS8 whole entry F92A): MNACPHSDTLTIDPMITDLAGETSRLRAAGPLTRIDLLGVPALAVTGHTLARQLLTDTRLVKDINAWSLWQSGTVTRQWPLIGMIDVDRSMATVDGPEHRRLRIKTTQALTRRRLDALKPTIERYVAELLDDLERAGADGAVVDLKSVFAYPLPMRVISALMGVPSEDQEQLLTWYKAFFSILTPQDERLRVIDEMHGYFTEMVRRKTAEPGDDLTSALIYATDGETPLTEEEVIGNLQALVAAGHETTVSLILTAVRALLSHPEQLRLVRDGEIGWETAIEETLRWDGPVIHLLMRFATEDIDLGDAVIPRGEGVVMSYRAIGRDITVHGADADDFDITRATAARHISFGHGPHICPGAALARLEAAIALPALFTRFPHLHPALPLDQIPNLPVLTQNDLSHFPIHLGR
Kind of assay: type I spectral shift titration, tight-binding fit.
Text: as §1

In assay [4] the target is T4, CYP154C5 (Nocardia farcinica, UniProt Q5YNS8, Q398A).
T4 construct: gene NFA_53110; full-length, N-terminal His-tag (pET28a(+), NdeI/HindIII), purified from E. coli C43(DE3)
T4 sequence (Q5YNS8 whole entry Q398A): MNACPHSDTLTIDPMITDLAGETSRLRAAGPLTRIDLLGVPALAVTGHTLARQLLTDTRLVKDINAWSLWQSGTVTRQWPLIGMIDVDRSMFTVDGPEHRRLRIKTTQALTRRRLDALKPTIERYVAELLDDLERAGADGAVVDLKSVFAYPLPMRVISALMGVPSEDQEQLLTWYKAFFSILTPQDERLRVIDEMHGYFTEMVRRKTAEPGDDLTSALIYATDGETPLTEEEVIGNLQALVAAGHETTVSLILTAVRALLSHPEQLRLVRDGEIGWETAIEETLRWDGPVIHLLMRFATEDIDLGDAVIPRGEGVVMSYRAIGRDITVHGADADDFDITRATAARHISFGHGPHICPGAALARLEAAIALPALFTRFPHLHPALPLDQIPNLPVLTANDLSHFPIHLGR
Kind of assay: type I spectral shift titration, tight-binding fit.
Text: as §1

Assay [5] deals with T5, CYP154C5 (Nocardia farcinica, UniProt Q5YNS8, M84A).
T5 construct: gene NFA_53110; full-length, N-terminal His-tag (pET28a(+), NdeI/HindIII), purified from E. coli C43(DE3)
T5 sequence (Q5YNS8 whole entry M84A): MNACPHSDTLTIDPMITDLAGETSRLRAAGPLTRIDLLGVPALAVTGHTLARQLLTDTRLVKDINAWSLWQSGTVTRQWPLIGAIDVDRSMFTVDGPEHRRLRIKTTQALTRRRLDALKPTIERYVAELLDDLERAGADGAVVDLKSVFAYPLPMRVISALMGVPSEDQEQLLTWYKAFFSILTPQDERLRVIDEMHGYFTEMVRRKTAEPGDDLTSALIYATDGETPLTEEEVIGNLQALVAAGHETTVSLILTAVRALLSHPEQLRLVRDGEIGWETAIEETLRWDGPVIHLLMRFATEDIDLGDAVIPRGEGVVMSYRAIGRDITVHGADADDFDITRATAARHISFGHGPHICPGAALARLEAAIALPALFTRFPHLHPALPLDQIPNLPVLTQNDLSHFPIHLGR
Kind of assay: type I spectral shift titration, tight-binding fit.
Text: as §1

Each structure is given as a SMILES string.

T1 sequence (Q5YNS8 entry or part of it): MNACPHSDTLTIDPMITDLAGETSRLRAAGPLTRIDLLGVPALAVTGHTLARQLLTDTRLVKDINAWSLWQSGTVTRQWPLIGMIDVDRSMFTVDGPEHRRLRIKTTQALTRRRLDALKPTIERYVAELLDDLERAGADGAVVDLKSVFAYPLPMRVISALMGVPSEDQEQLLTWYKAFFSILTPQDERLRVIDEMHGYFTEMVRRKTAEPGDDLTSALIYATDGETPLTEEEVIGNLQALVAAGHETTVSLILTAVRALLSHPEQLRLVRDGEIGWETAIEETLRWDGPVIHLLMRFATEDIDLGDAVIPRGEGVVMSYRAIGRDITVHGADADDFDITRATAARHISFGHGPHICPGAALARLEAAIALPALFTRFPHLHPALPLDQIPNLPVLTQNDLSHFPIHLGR
T2 sequence (Q5YNS8 whole entry Q239A): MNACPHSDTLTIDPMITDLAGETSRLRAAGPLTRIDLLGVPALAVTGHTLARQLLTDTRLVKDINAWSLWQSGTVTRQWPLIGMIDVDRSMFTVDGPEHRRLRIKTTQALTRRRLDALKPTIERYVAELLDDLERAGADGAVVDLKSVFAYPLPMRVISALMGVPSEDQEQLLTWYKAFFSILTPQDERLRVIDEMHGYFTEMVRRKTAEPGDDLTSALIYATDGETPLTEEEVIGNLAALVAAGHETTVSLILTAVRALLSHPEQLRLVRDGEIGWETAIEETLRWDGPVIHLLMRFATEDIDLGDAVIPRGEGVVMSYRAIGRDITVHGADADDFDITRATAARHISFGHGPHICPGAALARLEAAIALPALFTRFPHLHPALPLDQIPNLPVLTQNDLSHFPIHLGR

One may read the Kd as the constant that tells how readily two partners part at equilibrium. With `C[C@]12CC[C@H]3[C@@H](CCC4=CC(=O)CC[C@@H]43)[C@@H]1CC[C@@H]2O` [compound 6, nandrolone], the figures for the Kd in assay [1] and in assay [2] were 0.1 ± 0.017 µM and 0.013 ± 0.006 µM, respectively.
Take `CC(=O)[C@H]1CC[C@H]2[C@@H]3CCC4=CC(=O)CC[C@]4(C)[C@H]3CC[C@]12C` [compound 3, progesterone]: the results for the Kd in assay [1], in assay [3] and in assay [4] were 0.015 ± 0.01 µM, 0.209 ± 0.012 µM and 0.034 ± 0.021 µM, respectively.
In the same order, the values of `C[C@]12CC[C@H](O)CC1=CC[C@@H]1[C@@H]2CC[C@]2(C)C(=O)CC[C@@H]12` [compound 2, dehydroepiandrosterone] are under 0.001 µM, 1.02 ± 0.032 µM and 0.687 ± 0.043 µM.
`C[C@]12CCC(=O)C=C1CC[C@@H]1[C@@H]2CC[C@]2(C)C(=O)CC[C@@H]12` [compound 4, androstenedione]: the Kd in assay [1] is 0.012 ± 0.007 µM; in assay [3], 0.512 ± 0.017 µM; in assay [5] it was 3.13 ± 0.234 µM.
For the molecule `C[C@]12CC[C@H]3[C@@H](CCC4=CC(=O)CC[C@@]43C)[C@@H]1CC[C@@H]2O` [compound 5, testosterone], the Kd is 0.018 ± 0.01 µM in assay [1], 1.48 ± 0.033 µM in assay [3], 5.71 ± 0.161 µM in assay [5] and 0.747 ± 0.045 µM in assay [4].
As to `CC(=O)[C@H]1CC[C@H]2[C@@H]3CC=C4C[C@@H](O)CC[C@]4(C)[C@H]3CC[C@]12C` [compound 1, pregnenolone], the Kd in assay [1] is 0.062 ± 0.014 µM.
`C[C@@]12CCC[C@H]1[C@@H]1CC[C@H]3CC(=O)CC[C@]3(C)[C@H]1CC2` [compound 11, 5α‐androstan‐3‐one]: in assay [1], the Kd was 0.02 ± 0.016 µM.
On the same count and under the same terms, in the case of `C[C@]12CCCCC1=CC[C@@H]1[C@@H]2CC[C@]2(C)C(=O)CC[C@@H]12` [compound 10, 3‐deoxydehydroepiandrosterone] it was 0.094 ± 0.052 µM.

These data come from publication PMC8048783, “CYP154C5 Regioselectivity in Steroid Hydroxylation Explored by Substrate Modifications and Protein Engineering” (Chembiochem, 2020).
